Assay results from publication PMC6273687, “Design, Synthesis and Biological Evaluation of Novel Primaquine-Cinnamic Acid Conjugates of the Amide and Acylsemicarbazide Type” (Molecules, 2016).

What was measured:
[1] = biological target: T1, soybean lipoxygenase (LOX) (Glycine max, UniProt P08170); assay: LOX inhibition study in vitro; assay type: biochemical; conditions: for inhibition at 100 µM: 1 × 10^−4 M; for IC50: values in parentheses in Table 3
T1 construct: purchased Sigma-Aldrich
T1 sequence (P08170 1-839): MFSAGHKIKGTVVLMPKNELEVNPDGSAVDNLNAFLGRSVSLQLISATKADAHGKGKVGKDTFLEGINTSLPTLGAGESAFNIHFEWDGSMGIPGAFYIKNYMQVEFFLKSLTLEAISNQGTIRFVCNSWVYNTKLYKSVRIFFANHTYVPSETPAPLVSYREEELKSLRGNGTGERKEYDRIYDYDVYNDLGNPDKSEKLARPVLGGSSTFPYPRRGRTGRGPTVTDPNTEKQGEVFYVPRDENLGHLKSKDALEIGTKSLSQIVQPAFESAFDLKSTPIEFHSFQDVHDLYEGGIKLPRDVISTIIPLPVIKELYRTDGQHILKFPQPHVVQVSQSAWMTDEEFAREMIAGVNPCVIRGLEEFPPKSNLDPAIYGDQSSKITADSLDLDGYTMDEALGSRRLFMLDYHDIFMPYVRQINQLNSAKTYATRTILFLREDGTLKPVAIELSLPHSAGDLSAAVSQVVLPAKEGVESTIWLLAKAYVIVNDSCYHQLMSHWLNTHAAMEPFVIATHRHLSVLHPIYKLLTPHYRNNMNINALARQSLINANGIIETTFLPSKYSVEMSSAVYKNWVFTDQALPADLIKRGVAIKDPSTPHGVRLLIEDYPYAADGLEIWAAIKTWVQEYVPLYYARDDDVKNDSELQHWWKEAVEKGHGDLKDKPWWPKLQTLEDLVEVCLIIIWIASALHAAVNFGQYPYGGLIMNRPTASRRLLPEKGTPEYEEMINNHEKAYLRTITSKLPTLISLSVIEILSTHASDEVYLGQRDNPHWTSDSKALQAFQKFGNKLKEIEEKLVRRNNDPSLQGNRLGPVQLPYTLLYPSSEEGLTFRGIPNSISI
Description: LOX inhibitory assay in vitro was accomplished as described previously. The test compounds (stock solutions 10 mM in DMSO) were incubated at room temperature with sodium linoleate (c = 0.1 mM) and 0.2 mL of LOX enzyme solution (1/9 × 10^−4 m/V in saline). The conversion of sodium linoleate to 13-hydroperoxylinoleic acid was measured at 234 nm and compared with the reference inhibitor. Several concentrations were used for the IC50 determination.

[2] = Inhibition of linoleic acid peroxidation (AAPH-induced); conditions: 5 × 10^−5 M
Description: For initiating the lipid peroxidation free radical AAPH was used. Final solution in the UV cuvette consisted of 10 μL linoleate sodium solution (c = 16 mM), 0.93 mL phosphate buffer (c = 0.05 M), pH 7.4, thermostated at 37 °C. 50 μL AAPH solution (c = 40 mM) and 10 μL of the tested compounds were added. The experiment was performed at 37 °C under air. The oxidation of linoleic acid sodium salt was monitored at 234 nm. The assays were repeated at least in triplicate and the standard deviation of absorbance was less than 10% of the mean. Trolox was used under the same experimental conditions as a reference compound.

[3] = system: HeLa cervical carcinoma cell line; assay: Growth inhibition of tumor cell lines in vitro (MTT / cell counting); assay type: cell-based; conditions: Homo sapiens
Description: (§1) The experiments were carried out on a murine lymphocytic leukemia cell line (L1210) and five human tumor cell lines: CEM, HeLa, NCI-H460, SW 620 and MCF-7. The cells were cultured as monolayers and maintained in Dulbecco′s modified Eagle medium (DMEM) supplemented with 10% fetal bovine serum (FBS), 2 mM L-glutamine, 100 U/mL penicillin and 100 μg/mL streptomycin in a humidified atmosphere with 5% CO2 at 37 °C.
(§2) The growth inhibition activity of the compounds was assessed as described previously. The cell lines were inoculated onto a series of standard 96-well microtiter plates on day 0, at 1.5 × 10^4 cells/mL (SW 620, H460) to 2.5 × 10^4 cells/mL (MCF-7, CEM and L1210), depending on the growth of the tumor cell line. Test agents were then added in ten-fold dilutions (10^−8 to 10^−4 M) and the cell cultures were then incubated for 3–4 days with 5% CO2 at 37 °C. Working dilutions of the compounds were freshly prepared on the day of testing.
(§3) After 3 (MCF-7, SW 620, NCI-H460) or 4 days (CEM, L1210), the cell growth rate was evaluated first light microscopically, then by viable cell counting and/or by performing the MTT assay, which detects dehydrogenase activity in live, not dead, cells. The absorbance (A) was measured on a microplate reader at 570 nm. The absorbance is directly proportional to the number of living, metabolically active cells. […] If however, all of the tested concentrations produce PGs exceeding the respective reference level of effect (e.g., PG value of 50), then the highest tested concentration is assigned as the default value, which is preceded by a “>” sign. Minimum two individual experiments were carried out and each test point was performed in quadruplicate.

[4] = system: CEM acute lymphoblastic leukemia cell line; assay: as above; assay type: cell-based; conditions: Homo sapiens, 96 h, 4 days
Description: as §1, §2, §3

[5] = system: L1210 murine lymphocytic leukemia cell line; assay: as above; assay type: cell-based; conditions: Mus musculus, 96 h; L1210, 4 days
Description: as §1, §2, §3

[6] = system: SW 620 colon carcinoma cell line; assay: as above; assay type: cell-based; conditions: Homo sapiens, 72 h; SW 620, 3 days
Description: as §1, §2, §3

[7] = system: MCF-7 breast carcinoma cell line; assay: as above; assay type: cell-based, human; conditions: for IC50: Homo sapiens, MCF7, 72 h, MCF-7, 3 days
Description: as §1, §2, §3

[8] = system: NCI-H460 lung carcinoma cell line; assay: as above; assay type: cell-based, human; conditions: Homo sapiens, 72 h; NCI-H460, 3 days
Description: as §1, §2, §3

[9] = Interaction with the stable radical DPPH (reducing ability)
Description: To a solution of DPPH in absolute ethanol the appropriate volume of the compounds (50 or 100 µM final concentrations) dissolved in DMSO was added. The absorbance was recorded at 517 nm after 20 and 60 min at room temperature. The experiments were repeated at least in triplicate and the standard deviation of absorbance was less than 10% of the mean. NDGA was used under the same experimental conditions as a reference compound.

colon carcinoma HCT 116 = assay: Growth inhibition of tumor cell lines in vitro (reference drugs); assay type: cell-based; conditions: Homo sapiens; colon carcinoma HCT 116 (footnote b, printed in SW 620 column)
human coronavirus (229E) = assay: microbe, parasite or virus in culture; assay type: cell-based; conditions: read-out: EC50 (concentration required to reduce virus-induced cytopathogenicity by 50%), HEL cell cultures

SMILES	inhibition at 100 µM [1] [%]	LP Inhibition (%) [2] [%]	IC50 [3] [µM]	IC50 [4] [µM]	IC50 [5] [µM]	IC50 [6] [µM]	IC50 [7] [µM]	IC50 [8] [µM]	DPPH-reducing ability RA (%) ([9]; 1 × 10^−4 M, 60 min)	DPPH-reducing ability RA (%) ([9]; 5 × 10^−5 M, 60 min)	IC50 (colon carcinoma HCT 116) [µM]	IC50 [1] [µM]	EC50 (human coronavirus (229E)) [µM]	fold higher activity than PQ ([7]; MCF-7) [fold]	fold higher activity than the anticancer reference drugs ([7]; MCF-7)	DPPH-reducing ability RA (%) ([9]; 1 × 10^−4 M, 20 min)	DPPH-reducing ability RA (%) ([9]; 5 × 10^−5 M, 20 min)
COc1cc(NC(C)CCCNC(=O)/C=C/c2cccc(C(F)(F)F)c2)c2ncccc2c1 (stereo not shown) [3i]	19	32	112 ± 11	41 ± 15	68 ± 2	64 ± 41	11 ± 2	> 100	8	13	–	–	–	–	–	–	–
COc1cc(NC(C)CCCN)c2ncccc2c1 (stereo not shown) [PQ, primaquine]	–	–	–	–	–	–	28 ± 10	30 ± 7	–	–	20 ± 6	–	–	–	–	–	–
COc1cc(NC(C)CCCNC(=O)NNC(=O)/C=C/c2ccc(C(F)(F)F)cc2)c2ncccc2c1 (stereo not shown) [7j, (E)-4-(4-(6-Methoxyquinolin-8-ylamino)pentyl)-1-(3-(4-(trifluoromethyl)phenyl)acryloyl)semicarbazide]	–	50	28 ± 12	9.4 ± 5.6	27	40 ± 5	0.03 ± 0.02	34 ± 2	95	79	–	35	9.5	900	100-to 500 fold	100	42
COc1cc(NC(C)CCCNC(=O)/C(C)=C/c2ccccc2)c2ncccc2c1 (stereo not shown) [3b, (E)-N-(4-(6-Methoxyquinolin-8-ylamino)pentyl)-2-methyl-3-phenylacrylamide]	14	79	106 ± 26	55 ± 6	51	> 100	9.4 ± 0.2	> 100	37	2	–	–	–	–	–	5	2
COc1cc(NC(C)CCCNC(=O)NNC(=O)/C=C/c2ccc(OC)c(OC)c2)c2ncccc2c1 (stereo not shown) [7d, (E)-1-(3-(3,4-Dimethoxyphenyl)acryloyl)-4-(4-(6-methoxyquinolin-8-ylamino)pentyl)semicarbazide]	–	88	92 ± 30	93 ± 46	40 ± 14	25 ± 9	1.9 ± 1.8	32 ± 21	100	100	–	10	–	–	–	100	55
COc1ccc(/C=C/C(=O)NCCCC(C)Nc2cc(OC)cc3cccnc23)cc1 (stereo not shown) [3c, (E)-3-(4-Methoxyphenyl)-N-(4-(6-methoxyquinolin-8-ylamino)pentyl)acrylamide]	45	70	> 125	61 ± 30	106 ± 6	> 100	20 ± 3	> 100	43	27	–	–	–	–	–	40	22
